In patent US11092596B2, “Material and method to screen proteasome stimulators” (Purdue Research Foundation, priority 2017, dated 2021):
One block for each molecule: values may come before it.

Assays:
Type in all cases: biochemical
[1] = biological target: T1, chymotrypsin-like activity of the 20S CP (Homo sapiens, UniProt P28074); assay: Kinetic assay, Suc-LLVY-AMC reporter hydrolysis by purified 20S CP; details: 25 μM compound, triplicate; hit = at least 50% increase
T1 construct: 5 μL purified 20S proteasome (90 nM in Tris-HCl) was added to the control and test wells
Experimental: (§1) Plate preparation for the kinetic assay was performed similarly for all assays. All 96-well plates contained the following in triplicate: reporter background, containing reporter only, and control wells, containing reporter and purified 20S CP. It was determined that each well will contain a total volume of 50 μL. To each well was added 40 μL of the coumarin or FRET reporters (in Tris-HCl, 50 mM, pH 7.7). To the reporter background wells was added 7.5 μL Tris-HCl and 2.5 μL of the solvent in which the compound of interest was dissolved or diluted. Similarly, to the control wells was added 2.5 μL Tris-HCl and 2.5 μL of the solvent in which the compound of interest was dissolved or diluted. To the test wells was added 2.5 μL Tris-HCl and 2.5 μL of the compound of interest at a predetermined concentration. Immediately prior to running the assay on the Synergy 4 Plate Reader, 5 μL purified 20S proteasome (90 nM in Tris-HCl) was added to the control and test wells.
(§2) The Synergy 4 Plate Reader was set to heat the plate at 37° C. and read fluorescence every 2 min over a 40 min period. The excitation and emission wavelengths were set according to the reporter. For the FRET reporter, the excitation and emission wavelengths were set to 335 nm and 493 nm, respectively, corresponding to the excitation and emission wavelengths of the Edans fluorophore. […]
Sodium dodecyl sulfate (SDS) was used to test the effect stimulating the 20S proteasome has on the hydrolysis of the FRET reporters. The appropriate concentration of SDS to use in the kinetic assay was determined using the small chymotrypsin-like activity reporter, Suc-LLVY-AMC (SEQ ID NO: 4). […] In triplicate, the following final concentrations of SDS were analyzed for the effect each has on the activity of the 20S proteasome: 4000 μM, 2000 μM, 1000 μM, 500 μM, 250 μM, 125 μM, and 0 μM, the basal activity of the 20S proteasome. […] Immediately prior to reading the plate with the Synergy 4 plate reader, 5 μL purified 20S proteasome (90 nM in Tris-HCl) was added to the wells at a final concentration of 9 nM per well.
The Synergy 4 Plate Reader was set to heat the plate at 37° C. and read fluorescence every 2 min over a 1 hr period. […] The resulting data in relative fluorescence units (RFU) was analyzed using GraphPad Prism and was plotted against time in minutes. […] Based on the resulting curve and the hyperbolic curve obtained using 1000 μM SDS (FIG. 11b), it was determined that 500 μM SDS was the appropriate concentration to use to test the effect stimulating the 20S proteasome has on the hydrolysis of the FRET reporters.
Stimulation of the 20S proteasome with SDS was determined using both the coumarin and FRET reporters for the chymotrypsin-like and trypsin-like activities of the 20S CP. […]

[2] = biological target: trypsin-like activity of the 20S CP (Homo sapiens, UniProt Q99436); assay: Kinetic assay, T-L FRET reporter hydrolysis by purified 20S CP; details: 25 μM compound, T-L FRET reporter; basal level set to 100%
Experimental: as §1, §2
Stimulation of the 20S proteasome with SDS was determined using both the coumarin and FRET reporters for the chymotrypsin-like and trypsin-like activities of the 20S CP. […] Immediately prior to running the assay on the Synergy 4 Plate Reader, 5 μL purified 20S proteasome (90 nM in Tris-HCl) was added to the control and test wells. The assay was performed using the Synergy 4 plate reader as described for the general screening kinetic assay procedure. […]
To each well was added 40 μL 20 μM T-L FRET reporter (in Tris-HCl, 50 mM, pH 7.7). […] Immediately prior to running the assay on the Synergy 4 Plate Reader, 5 μL purified 20S proteasome (90 nM in Tris-HCl) was added to the control and test wells.

[3] = biological target: T2, chymotrypsin-like activity of the 26S proteasome (Homo sapiens, UniProt P28074); assay: Kinetic assay, CT-L FRET reporter with 26S proteasome; details: 25 μM compound
T2 construct: 5 μL purified 26S proteasome (62.5 μg/mL in Tris-HCl) was added to the control and test wells
Experimental: Compounds 1, 2, and 3 were screened with the 26S proteasome in triplicate using the CT-L FRET reporter.
To each well was added 40 μL 20 μM CT-L FRET reporter (in Tris-HCl, 50 mM, pH 7.7). To the reporter background wells was added 5 μL Tris-HCl and 5 μL 1:1 Tris-HCl:DMSO. Similarly, to the control wells was added 5 μL 1:1 Tris-HCl:DMSO. To the test wells was added 2.5 μL Tris-HCl and 2.5 μL of a 500 μM solution of the compound of interest in DMSO. […] Immediately prior to running the assay on the Synergy 4 Plate Reader, 5 μL purified 26S proteasome (62.5 μg/mL in Tris-HCl) was added to the control and test wells.
The assay was performed using the Synergy 4 plate reader as described for the general screening kinetic assay procedure.

Compound: Cc1c(C)c2c(c(C)c1OC(=O)CCC(=O)O)CC[C@@](C)(CCC[C@H](C)CCC[C@H](C)CCCC(C)C)O2 [Compound 3, vitamin E succinate]
primary hit status with the 4-amino acid reporter Suc-LLVY-AMC [1]: would not have been considered primary hits
stimulation of the trypsin-like activity of the 20S CP [2]: 146%
ability to stimulate the 26S proteasome's CT-L activity [3]: Neither molecules 2 or 3 affected the rate

stimulation of the trypsin-like activity of the 20S CP [2]: 234%
Compound: C[C@H]1[C@H](C)CC[C@]2(C(=O)O)CC[C@]3(C)C(=CC[C@@H]4[C@@]5(C)CC[C@H](O)C(C)(C)[C@@H]5CC[C@]43C)[C@H]12 [Compound 2, ursolic acid]
primary hit status with the 4-amino acid reporter Suc-LLVY-AMC [1]: would not have been considered primary hits
ability to stimulate the 26S proteasome's CT-L activity [3]: Neither molecules 2 or 3 affected the rate
